US6036958A, “Tsetse thrombin inhibitor” (Yale University, priority 1999, dated 2000)
No end group written: not given here.

Experiments:
[1] = tested on: restenosis following angioplasty; settings: rabbits; cited from earlier work
[2] = tested on: ADP induced platelet aggregation; assay: Platelet aggregation assay, ADP induced; format: cell-based, human; settings: purified TTI
Protocol: (§1) Platelet Aggregation Assay. Blood from a healthy human volunteer was collected by venipuncture, anticoagulated with 1/10 volume of 0.08 M trisodium citrate, and centrifuged at 150 g for 10 min. The platelet rich plasma (PRP) was withdrawn and acidified to pH 6.4 using 0.15 M citric acid^15. The PRP was then centrifuged at 370 g for 20 min and the supernatant discarded. The platelet pellet was resuspended in Tyrodes solution (pH 7.4) with 3.13% wt/vol trisodium citrate and counted in a Coulter counter (Coulter Electronics, Hialeah, Fla.). The concentration of platelets was adjusted to 3×10^4 /μl prior to use.

[3] = tested on: thrombin induced platelet aggregation; assay: Platelet aggregation assay, thrombin induced; format: cell-based; settings: washed human platelets; TTI 0, 0.001, 0.5, 1.0 nM; thrombin 0.2 NIH U/ml
Protocol: as §1
To determine the effect of TTI on thrombin induced aggregation, 200 μl of washed platelets were warmed to 37° C. in a Born multi-channel aggregometer in the presence of increasing concentrations of purified TTI. Aggregation was then recorded following the addition of 20 μl of thrombin (Boehringer-Mannheim, Indianapolis, Ind.) at a final concentration of 0.2 NIH U/ml. The aggregometer was calibrated to 100% light transmission, ie 0% aggregation, using Tyrodes solution.

thrombin = thrombin (Homo sapiens, UniProt P00734); assay: Single stage chromogenic assay of thrombin inhibition (S-2238); format: biochemical; settings: purified protein
Protocol: Thrombin Assays. A single stage chromogenic assay of thrombin inhibition was used to monitor SGE activity. 100 μl of thrombin, diluted to a concentration of 1 nM in 10 mM HEPES, pH 7.5 containing 0.1% bovine serum albumin and 150 mM NaCl (HBSA), was incubated with 50 µl of SGE, column fractions (diluted 1:1000 in HBSA), or purified TTI for 15 min at 25° C. in a 96 well microtiter plate. Following the addition of […], the initial rate (mOD/min) of substrate hydrolysis over 5 min was measured at 405 nm using a Vmax kinetic microplate reader (Molecular Devices, Palo Alto, Calif.). Results were expressed as percent inhibition of thrombin activity using the following formula:
Percent inhibition=1--(inhibited rate/uninhibited rate)×100

[4] = tested on: collagen induced platelet aggregation; assay: Platelet aggregation assay, collagen induced; format: cell-based, human; settings: purified TTI
Protocol: as §1

tick anticoagulant peptide: from Ornithodoros moubata, potent and specific inhibitor of factor Xa (YNRLCIKPRDWIDECDSNEGGERAYFRNGKGGCDSFWICPEDHTGADYYSSYRDCFNACI; ends and bridges not checked; cysteine pairing not given here; UniProt P17726 1-60, looked up) [reference compound]
reducing restenosis following angioplasty, compared with heparin [1]: superior to heparin

TTI: low molecular weight polypeptide (about 3530 Da) purified from Glossina morsitans morsitans salivary glands; residues 19 to 50 of SEQ ID NO: 2 (GEPGAPIDYDEYGDSSEEVGGTPLHEIPGIRL)
effect on ADP induced aggregation [2]: no effect | inhibition of platelet aggregation in response to thrombin [3]: dose dependent inhibition of platelet aggregation | inhibitory activity against thrombin (thrombin): potent, tight-binding inhibitor of thrombin | effect on collagen induced aggregation [4]: no effect

B1: recombinant antistasin: from the leech Haementaria officinalis, potent and specific inhibitor of factor Xa (protein, UniProt P15358 18-136, looked up)
Antistasin: QGPFGPGCEEAGCPEGSACNIITDRCTCSGVRCRMHCPHGFQRSRYGCEFCKCRLEPMKATCDISECPEGMMCSRLTNKCDCKIDINCRKTCPNGLKRDKLGCEYCECRPKRKLIPRLS
reducing restenosis following angioplasty, compared with heparin [1]: superior to heparin
